Here are results for ten molecules from patent US12180207B2 (ARRAY BIOPHARMA INC., priority 2018, dated 2024).

In experiment [1] the target is recombinant human FGFR2 cytoplasmic domain (amino acids 403-822) (Homo sapiens (Human), UniProt P21802). The experiment in a line: FGFR2 enzyme activity assay (LanthaScreen TR-FRET). The format is biochemical. The following applies: 15 μM ATP, 20 min incubation at 22° C., average of multiple determinations if made, read-out: FGFR2 Enz FRET IC50. A digest of the protocol: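 Substrate phosphorylation was read by TR-FRET using Eu-PY20 antibody (60 min, 22 °C) after a 20 min, 22 °C reaction. The reaction used 15 μM ATP, 100 nM fluorescent poly-GT peptide and His-tagged FGFR2 403-822 ([…]) at pH 7.5 with 2% DMSO.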
For orientation: Time-resolved FRET reads energy transfer from a long-lived donor to a nearby acceptor.

For experiment [2], the target named is dephosphorylated FGFR1 (SEQ ID NO: 1, amino acids 458 to 765) (Homo sapiens (Human), UniProt P11362). The experiment in a line: FGFR enzyme binding assay (HTRF tracer displacement), FGFR1. The following applies: 5 nM dephosphorylated FGFR1, average of multiple determinations if made. The method, boiled down:
(§1)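 Kinase and tracer were incubated with compound for 60 minutes at 22° C. Tracer displacement was then measured by HTRF, and results were expressed as POC with 1 μM control inhibitor defining full displacement.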

The target in experiment [3] is recombinant human FGFR1 catalytic domain (amino acids 308-731) (Homo sapiens (Human), UniProt P11362). The experiment in a line: FGFR1 enzyme activity assay (LanthaScreen TR-FRET). Conditions: 20 min incubation at 22° C., average of multiple determinations if made, read-out: FGFR1 Enz FRET IC50. The format is biochemical. The method, boiled down: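 His-tagged FGFR1 kinase domain with 100 nM Alexa Fluor 647-poly-GT peptide and ATP in pH 7.5 HEPES/MgCl2 buffer with 2% DMSO, 20 min at 22 °C. Quenched with EDTA plus 2 nM Eu-PY20 antibody and read after 60 min. IC50 comes from a 4-parameter fit of percent of control.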

For experiment [4], the target named is FGFR1 (SEQ ID NO: 1, amino acids 458-765) (Homo sapiens (Human), UniProt P11362). The experiment in a line: LC/MS FGFR1 kobs assay (covalent protein modification). Type of experiment: binding. The following applies: 500 nM FGFR1, 3 μM compound. The method, boiled down: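 Covalent labeling of FGFR1 kinase domain (aa 458-765) tracked over time by intact-protein LC/MS after formic acid quench. kobs derived by fitting DMSO-normalized percent unmodified FGFR1 to an exponential decay model.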

For experiment [5], the target named is FGFR3 (SEQ ID NO: 5, amino acids 449-759) (Homo sapiens (Human), UniProt P22607). The experiment in a line: LC/MS FGFR3 kobs assay (covalent protein modification). Type of experiment: binding. The following applies: 500 nM FGFR3, 3 μM compound. The method, boiled down: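 kobs is the rate constant from an exponential-decay fit of percent unmodified kinase, normalized to DMSO controls, averaged over multiple determinations where available. Time-course samples of FGFR1 (458-765) and FGFR3 (449-759) with compound were acid-quenched (0.4% formic acid) and protein adducts quantified by intact-mass LC/MS.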

In experiment [6] the target is phosphorylated FGFR3 (SEQ ID NO: 5, amino acids 449 to 759) (Homo sapiens (Human), UniProt P22607). The experiment in a line: FGFR enzyme binding assay (HTRF tracer displacement), FGFR3. The following applies: 5 nM phosphorylated FGFR3, average of multiple determinations if made. The method, boiled down: as §1
phosphorylated FGFR3 (SEQ ID NO: 5, amino acids 449 to 759), sequence (P22607 449-759): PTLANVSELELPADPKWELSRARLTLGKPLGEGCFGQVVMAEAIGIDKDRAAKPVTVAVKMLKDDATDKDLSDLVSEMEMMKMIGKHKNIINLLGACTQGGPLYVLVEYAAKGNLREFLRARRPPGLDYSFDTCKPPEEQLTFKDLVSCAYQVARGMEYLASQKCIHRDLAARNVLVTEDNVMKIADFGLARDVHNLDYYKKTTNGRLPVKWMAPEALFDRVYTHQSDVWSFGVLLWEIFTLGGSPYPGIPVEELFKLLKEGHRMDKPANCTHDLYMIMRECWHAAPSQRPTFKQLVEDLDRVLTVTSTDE

dephosphorylated FGFR1 (SEQ ID NO: 1, amino acids 458 to 765), sequence (P11362 458-765): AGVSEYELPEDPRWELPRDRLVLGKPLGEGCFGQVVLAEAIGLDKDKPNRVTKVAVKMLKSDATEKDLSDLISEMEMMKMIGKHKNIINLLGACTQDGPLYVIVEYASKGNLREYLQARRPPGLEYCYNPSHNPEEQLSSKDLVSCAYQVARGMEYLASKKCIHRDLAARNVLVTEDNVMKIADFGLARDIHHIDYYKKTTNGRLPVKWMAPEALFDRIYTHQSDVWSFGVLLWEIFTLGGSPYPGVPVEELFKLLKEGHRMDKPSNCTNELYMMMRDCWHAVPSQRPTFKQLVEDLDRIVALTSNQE
FGFR1 (SEQ ID NO: 1, amino acids 458-765), sequence (P11362 458-765): as above
recombinant human FGFR2 cytoplasmic domain (amino acids 403-822), sequence (P21802 402-821): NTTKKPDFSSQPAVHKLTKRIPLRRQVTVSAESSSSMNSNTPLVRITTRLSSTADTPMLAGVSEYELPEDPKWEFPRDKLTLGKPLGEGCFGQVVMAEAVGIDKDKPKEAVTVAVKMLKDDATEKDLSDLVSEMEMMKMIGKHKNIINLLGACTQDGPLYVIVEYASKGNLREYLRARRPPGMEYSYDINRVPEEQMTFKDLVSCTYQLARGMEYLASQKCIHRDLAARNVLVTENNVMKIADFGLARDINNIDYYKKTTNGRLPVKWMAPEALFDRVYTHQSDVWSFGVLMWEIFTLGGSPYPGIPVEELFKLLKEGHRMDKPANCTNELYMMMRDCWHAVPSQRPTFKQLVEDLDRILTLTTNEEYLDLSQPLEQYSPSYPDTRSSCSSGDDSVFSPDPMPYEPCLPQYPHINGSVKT
recombinant human FGFR1 catalytic domain (amino acids 308-731), sequence (P11362 other isoform, or with tags, fused parts or gaps): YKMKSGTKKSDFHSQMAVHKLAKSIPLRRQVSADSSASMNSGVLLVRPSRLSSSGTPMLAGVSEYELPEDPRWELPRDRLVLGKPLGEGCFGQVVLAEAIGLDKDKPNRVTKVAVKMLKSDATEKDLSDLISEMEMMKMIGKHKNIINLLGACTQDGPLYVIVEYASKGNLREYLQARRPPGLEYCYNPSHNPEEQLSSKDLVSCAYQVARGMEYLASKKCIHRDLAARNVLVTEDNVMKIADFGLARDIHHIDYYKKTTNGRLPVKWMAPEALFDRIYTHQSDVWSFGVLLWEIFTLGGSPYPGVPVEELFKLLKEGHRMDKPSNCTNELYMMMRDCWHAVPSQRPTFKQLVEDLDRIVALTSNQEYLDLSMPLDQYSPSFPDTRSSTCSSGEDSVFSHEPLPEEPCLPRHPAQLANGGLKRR
FGFR3 (SEQ ID NO: 5, amino acids 449-759), sequence (P22607 449-759): as the sequence (P22607 449-759) above

`C=CC(=O)N1CC(C(=O)N2CCC(n3ncc(-c4cc(OC)c5c(C#N)cnn5c4)c3C)CC2)C1` [Example 84, 6-(1-(1-(1-acryloylazetidine-3-carbonyl)piperidin-4-yl)-5-methyl-1H-pyrazol-4-yl)-4-methoxypyrazolo[1,5-a]pyridine-3-carbonitrile]: the IC50 in experiment [1] was 15 nM; in experiment [2], 777 nM; in experiment [3], 100 nM; in experiment [6] it was 22 nM. Besides, the “FGFR1 Enz kobs” value in experiment [4] is 0.00183 min⁻¹. The “FGFR3 Enz kobs” value in experiment [5] came to 0.02394 min⁻¹.

Turning to `C=CC(=O)N1CC[C@H](C(=O)N2CCC(n3cc(-c4cc(OC)c5c(C#N)cnn5c4)cn3)CC2)C1` [Example 28, (S)-6-(1-(1-(1-acryloylpyrrolidine-3-carbonyl)piperidin-4-yl)-1H-pyrazol-4-yl)-4-methoxypyrazolo[1,5-a]pyridine-3-carbonitrile], the IC50 in experiment [1] came to 5 nM; in experiment [2], 105 nM; in experiment [3], 18 nM; in experiment [6], 17 nM. In addition, the “FGFR1 Enz kobs” value in experiment [4] was 0.00075 min⁻¹. Further, the “FGFR3 Enz kobs” value in experiment [5] is 0.00294 min⁻¹.

For the molecule `C=CS(=O)(=O)N[C@@H]1CC[C@H](C(=O)N2CCC(n3cc(-c4cc(OC)c5c(C#N)cnn5c4)cn3)CC2)C1` [Example 191, N-((1R,3S)-3-(4-(4-(3-cyano-4-methoxypyrazolo[1,5-a]pyridin-6-yl)-1H-pyrazol-1-yl)piperidine-1-carbonyl)cyclopentyl)-ethenesulfonamide], the IC50 in experiment [1] was determined as 5 nM; in experiment [2], 103 nM; in experiment [3], 19 nM; in experiment [6], 10 nM. The “FGFR1 Enz kobs” value in experiment [4] was determined as 0.00583 min⁻¹. For the same molecule, in experiment [5], the “FGFR3 Enz kobs” value was 0.02236 min⁻¹.

In the case of `C=CC(=O)N1CC(C#N)(C(=O)N2CCC(n3cc(-c4cc(OC)c5c(C#N)cnn5c4)cn3)CC2)C1` [Example 39, 6-(1-(1-(1-acryloyl-3-cyanoazetidine-3-carbonyl)piperidin-4-yl)-1H-pyrazol-4-yl)-4-methoxypyrazolo[1,5-a]pyridine-3-carbonitrile], the IC50 in experiment [1] was 5 nM; in experiment [2] it was 26 nM; in experiment [3] it was 11 nM; in experiment [6], 2 nM. Further, the “FGFR1 Enz kobs” value in experiment [4] amounted to 0.01019 min⁻¹. Besides, in experiment [5], the “FGFR3 Enz kobs” value was found to be 0.2019 min⁻¹.

For `C=CC(=O)N1CC[C@@H](C(=O)N2CCC(n3cc(-c4cc(OC)c5c(C#N)cnn5c4)cn3)CC2)C1` [Example 29, (R)-6-(1-(1-(1-acryloylpyrrolidine-3-carbonyl)piperidin-4-yl)-1H-pyrazol-4-yl)-4-methoxypyrazolo[1,5-a]pyridine-3-carbonitrile], the IC50 is 8 nM in experiment [1], 251 nM in experiment [2], 24 nM in experiment [3] and 43 nM in experiment [6]. Further, the “FGFR1 Enz kobs” value in experiment [4] turned out to be 0.00075 min⁻¹. Also, the “FGFR3 Enz kobs” value in experiment [5] was 0.00297 min⁻¹.

In the case of `C=CC(=O)Nc1ccc(C(=O)N2CC[C@H](n3cc(-c4cc(OC)c5c(C#N)cnn5c4)cn3)C2)c(OC)c1` [Example 69, (S)-N-(4-(3-(4-(3-cyano-4-methoxypyrazolo[1,5-a]pyridin-6-yl)-1H-pyrazol-1-yl)pyrrolidine-1-carbonyl)-3-methoxyphenyl)acrylamide], the IC50 in experiment [1] came to 6 nM; in experiment [2], 77 nM; in experiment [3], 12 nM; in experiment [6], 11 nM. The “FGFR1 Enz kobs” value in experiment [4] was found to be 0.00422 min⁻¹. In addition, the “FGFR3 Enz kobs” value in experiment [5] was 0.01649 min⁻¹.

Turning to `C=CC(=O)N1CC[C@@H](C(=O)N2CCC(n3ncc(-c4cc(OC)c5c(C#N)cnn5c4)c3C)CC2)C1` [Example 83, (R)-6-(1-(1-(1-acryloylpyrrolidine-3-carbonyl)piperidin-4-yl)-5-methyl-1H-pyrazol-4-yl)-4-methoxypyrazolo[1,5-a]pyridine-3-carbonitrile], the IC50 in experiment [1] is 9 nM; in experiment [2] it was 420 nM; in experiment [3], 77 nM; in experiment [6] it was 14 nM. The “FGFR1 Enz kobs” value in experiment [4] amounted to 0.00058 min⁻¹. In addition, the “FGFR3 Enz kobs” value in experiment [5] was found to be 0.00547 min⁻¹.

As for `C=CC(=O)N1CC(C(=O)N2CCC(n3cc(-c4cc(OC)c5c(C#N)cnn5c4)cn3)CC2)C1C` (stereo not drawn) [Example 42, 6-(1-(1-(1-acryloyl-2-methylazetidine-3-carbonyl)piperidin-4-yl)-1H-pyrazol-4-yl)-4-methoxypyrazolo[1,5-a]pyridine-3-carbonitrile], the IC50 in experiment [1] came out at 6 nM; in experiment [2] it was 43 nM; in experiment [3] it was 11 nM; in experiment [6] it was 3 nM. In addition, the “FGFR1 Enz kobs” value in experiment [4] came to 0.00113 min⁻¹. Moreover, in experiment [5], the “FGFR3 Enz kobs” value was 0.01575 min⁻¹.

As for `C=CC(=O)N1CCC(C#N)(C(=O)N2CCC(n3cc(-c4cc(OC)c5c(C#N)cnn5c4)cn3)CC2)C1` (stereo not drawn) [Example 31, 6-(1-(1-(1-acryloyl-3-cyanopyrrolidine-3-carbonyl)piperidin-4-yl)-1H-pyrazol-4-yl)-4-methoxypyrazolo[1,5-a]pyridine-3-carbonitrile], the IC50 in experiment [1] turned out to be 2 nM; in experiment [2] it was 26 nM; in experiment [3], 8 nM; in experiment [6] it was 2 nM. In experiment [4], the “FGFR1 Enz kobs” value stood at 0.00146 min⁻¹. Further, in experiment [5], the “FGFR3 Enz kobs” value turned out to be 0.02377 min⁻¹.

For the molecule `C=CC(=O)N1CCC(C(=O)N2CCC(n3cc(-c4cc(OC)c5c(C#N)cnn5c4)cn3)CC2)C(F)(F)C1` (stereo not drawn) [Example 15, 6-(1-(1-(1-acryloyl-3,3-difluoropiperidine-4-carbonyl)piperidin-4-yl)-1H-pyrazol-4-yl)-4-methoxypyrazolo[1,5-a]pyridine-3-carbonitrile], the IC50 stood at 2 nM in experiment [1], 32 nM in experiment [2], 7 nM in experiment [3] and 2 nM in experiment [6]. In addition, in experiment [4], the “FGFR1 Enz kobs” value came to 0.00168 min⁻¹. Besides, in experiment [5], the “FGFR3 Enz kobs” value came to 0.01716 min⁻¹.

In general, IC50 refers to the concentration at which inhibition is half-maximal.
